pEC50: −log10 of the molar value.
System: SARS-CoV-2 delta variant (hCoV-19/USA/MD-HP05647/2021)
Test: Live virus antiviral test in A549-hACE2 cells (RT-qPCR)
Format: cell-based
Details: Severe acute respiratory syndrome coronavirus 2, 72 h

CC1(C)[C@@H]2[C@@H](C(=O)N[C@H](C=O)C[C@@H]3CCNC3=O)N(C(=O)[C@H](CC3CCCCC3)NC(=O)OCc3ccccc3)C[C@@H]21 [MPI100]
pEC50: 5.47

— article PMC11181478, “SARS-CoV-2 Main Protease Inhibitors That Leverage Unique Interactions with the Solvent Exposed S3 Site of the Enzyme” (ACS Medicinal Chemistry Letters, 2024)
